Test results as given in patent US5622947A, “Benzoheterocyclic compounds and vasopressin antagonist and oxytocin antagonist compositions containing a benzoheterocyclic compound” (Otsuka Pharmaceutical Co., Ltd., priority 1992, dated 1997).
Where a name gives a salt, the structure may show the parent alone.

Target: T1, Oxytocin receptor (uterin muscle membrane preparation) (Rattus norvegicus, UniProt P70536)
T1 construct: was homogenized, which was used as a membrane; from tissue; host or cells: uterine muscle membranes from diethylstilbestrol-treated animals
T1 sequence (P70536 1-388): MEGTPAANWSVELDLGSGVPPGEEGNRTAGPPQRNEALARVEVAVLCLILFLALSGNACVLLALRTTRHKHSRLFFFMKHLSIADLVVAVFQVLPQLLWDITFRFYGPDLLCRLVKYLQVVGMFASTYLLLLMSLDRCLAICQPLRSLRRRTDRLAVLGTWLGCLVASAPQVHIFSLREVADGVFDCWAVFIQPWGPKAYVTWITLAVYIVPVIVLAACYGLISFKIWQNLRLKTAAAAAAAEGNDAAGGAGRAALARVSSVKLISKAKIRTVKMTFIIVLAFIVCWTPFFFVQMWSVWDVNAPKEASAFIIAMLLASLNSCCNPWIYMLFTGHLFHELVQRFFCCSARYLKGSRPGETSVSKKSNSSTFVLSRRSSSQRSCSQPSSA
Experiment: Oxytocin receptor binding assay
Settings: [3H]-oxytocin 10^-9 M, 25°, one hour, pH 8.0, uterin muscle membrane, DES-treated
Protocol: Test-5 Oxytocin receptor binding assay
In accordance with Chan's method [by W. Y. Chan, et al.: Endocrinology, 126, 2095-2101 (1990)], the uterin muscle benn injected subcutaneously with diethylstilbe-sterol (DES) the day before and was homogenized, which was used as a membrane prepara tion. The membrane preparation (0.2 mg), [^3 H]-oxytocin (100,000 dpm, 10^-9 M), a test compound (10^-9 to 10^-5 M) were incubated at 25°. for one hour in 100 mM Tris-HCl buffer (pH=8.0, 250 μl) containing 5 mM MgCl2, 1 mM EDTA and 0.1% BSA. The mixture was filtered through a glass filter (GF/F) so as to separate the membrane preparation combining with [^3 H]-oxytocin, then, was washed twicw with the buffer (5 ml). The glass filter was put into a vial and mixed with Aquasole (a liquid scintillation cocktail). The amount of [^3 H]-oxytocin combining w ith the membrane was measured by a liquid scintillation counter. The rate of the inhibitory effect of the test compound was calculated according to the equation as follows: […]
C1 : the amount of [^3 H]-oxytocin combining with the membrane in the presence of a test compound (in known amount),
C0 : the amount of [^3 H]-oxytocin combinig with the membrane in the absence of a test compound,
B: the amount of [^3 H]-oxytocin combining with the membrane in the presence of the excess amount of oxytocin (5×10^-6 M).
The results are expressed as IC50 values, which is the concentration of the test compound required to achieve the inhibitory effect in the rate of 50%.

IC50 [nM] | Structure (SMILES)
387 | COc1cc(NC(=O)c2ccccc2Cl)ccc1C(=O)N1CCCC(OCCn2cncn2)c2cc(Cl)ccc21 (stereo not shown) [Example 176, 5-[2-(1,2,4-Triazol-1-yl)ethoxy]-7-chloro-1-[2-methoxy-4-(2-chlorobenzoylamino)benzoyl]-2,3,4,5-tetrahydro-1H-benzoazepine]
280 | Cc1ccccc1C(=O)Nc1ccc(C(=O)N2CCCC(CC(N)=O)c3cc(Cl)ccc32)cc1 (stereo not shown) [Example 112, 5-Carbamoylmethyl-7-chloro-1-[4-(2-methylbenzoylamino)benzoyl]-2,3,4,5-tetrahydro-1H-benzoazepine]
13 | CCN(CC)CCN(CC)C(=O)CC1CCCN(C(=O)c2ccc(NC(=O)c3ccccc3Cl)cc2OC)c2ccc(Cl)cc21 (stereo not shown) [Example 175, 5-[N-(2-Diethylaminoethyl)-N-ethylamino]-carbonylmethyl-7-chloro-1-[2-methoxy-4-(2-chlorobenzoylamino)benzoyl]-2,3,4,5-tetrahydro-1H-benzoazepine]
1300 | COc1cc(C(=O)N2CCCC(OC(=O)[C@@H](N)CCCCN)c3cc(Cl)ccc32)ccc1NC(=O)c1ccccc1C (stereo partly shown) [Example 107]
380 | CN1CCN(C(=O)CC2CCCN(C(=O)c3ccc(NC(=O)c4ccccc4Cl)cc3)c3ccc(Cl)cc32)CC1 (stereo not shown) [Example 116]
99 | COc1cc(NC(=O)c2ccccc2Br)ccc1C(=O)N1CCCC(CC(=O)N2CCC(NC(C)=O)CC2)c2cc(F)ccc21 (stereo not shown) [Example 60, 5-[(4-Acetylamino-1-piperidinyl)carbonylmethyl]-7-fluoro-1-[2-methoxy-4-(2-bromobenzoylamino)benzoyl]-2,3,4,5-tetrahydro-1H-benzoazepine]
1050 | CC(=O)N1CCN(CCC2CCCN(C(=O)c3ccc(NC(=O)c4ccccc4C)cc3Cl)c3ccc(Cl)cc32)CC1 (stereo not shown) [Example 174, 5-[2-(4-Acetyl-1-piperazinyl)ethyl]-7-chloro-1-[2-chloro-4-(2-methylbenzoylamino)benzoyl]-2,3,4,5-tetrahydro-1H-benzoazepine]
969 | CN1CCN(C(=O)CC2CCCN(C(=O)c3ccc(NC(=O)c4ccccc4)cc3)c3ccc(Cl)cc32)CC1 (stereo not shown) [Example 178, 5-(4-Methyl-1-piperazinyl)carbonylmethyl-7-chloro-1-(4-benzoylaminobenzoyl)-2,3,4,5-tetrahydro-1H-benzoazepine]
1900 | Cc1ccccc1C(=O)Nc1ccc(C(=O)N2CCCC(CC(=O)N3CCN(C)CC3)c3cc(Cl)ccc32)c(Cl)c1 (stereo not shown) [Example 108]
4410 | COc1cc(NC(=O)c2cccc3c2OCCC3)ccc1C(=O)N1CCCC(CC(=O)N2CCN(C)CC2)c2cc(Cl)ccc21 (stereo not shown) [Example 183]
162 | COc1cc(C(=O)N2CCCC(CC(=O)N3CCCN(C)CC3)c3cc(Cl)ccc32)ccc1NC(=O)c1ccccc1Br (stereo not shown) [Example 185]
2190 | Cc1ccccc1C(=O)Nc1ccc(C(=O)N2CCCC(CC(N)=O)c3cc(Cl)ccc32)c(Cl)c1 (stereo not shown) [Example 173, 5-Carbamoylmethyl-7-chloro-1-[2-chloro-4-(2-methylbenzoylamino)benzoyl]-2,3,4,5-tetrahydro-1H-benzoazepine]
2300 | C=CCNCCC1CCCN(C(=O)c2ccc(NC(=O)c3ccccc3Cl)cc2C)c2ccc(Cl)cc21 (stereo not shown) [Example 121, 5-(2-Allylaminoethyl)-7-chloro-1-[2-methyl-4-(2-chlorobenzoylamino)benzoyl]-2,3,4,5-tetrahydro-1H-benzoazepine]
2200 | CNC(=O)CC1CCCN(C(=O)c2ccc(NC(=O)c3ccccc3Cl)cc2C)c2ccc(Cl)cc21 (stereo not shown) [Example 122, 5-Methylaminocarbonylmethyl-7-chloro-1-[2-methyl-4-(2-chlorobenzoylamino)benzoyl]-2,3,4,5-tetrahydro-1H-benzoazepine]
3670 | CC(=O)NC1CCN(CCCCOc2ccc(Cl)c(C(=O)Nc3ccc(C(=O)N4CCCCc5cc(Cl)ccc54)cc3)c2)CC1 [Example 184]
2100 | Cc1ccccc1C(=O)Nc1ccc(C(=O)N2CCCC(CC(=O)N3CCNCC3)c3cc(Cl)ccc32)c(C)c1 (stereo not shown) [Example 115]

IC50 [nM] | Structure (SMILES)
270 | COc1cc(C(=O)N2CCCC(CC(=O)N3CCN(C)CC3)c3cc(Cl)ccc32)ccc1NC(=O)c1ccccc1Br (stereo not shown) [Example 119, 5-(4-Methyl-1-piperazinyl)carbonylmethyl-7-chloro-1-[3-methoxy-4-(2-bromobenzoylamino)benzoyl]-2,3,4,5-tetrahydro-1H-benzoazepine]
610 | COc1cc(C(=O)N2CCCC(CC(=O)N(C)C)c3cc(Cl)ccc32)ccc1NC(=O)c1ccccc1C (stereo not shown) [Example 32, 5-Dimethylaminocarbonylmethyl-7-chloro-1-[3-methoxy-4-(2-methylbenzoylamino)benzoyl]-2,3,4,5-tetrahydro-1H-benzoazepine]
250 | O=C(Nc1ccc(C(=O)N2CCCC(OCCO)c3cc(Cl)ccc32)cc1)c1ccccc1Cl (stereo not shown) [Example 113]
250 | Cc1ccccc1C(=O)Nc1ccc(C(=O)N2CCCC(CC(=O)N(C)C)c3cc(Cl)ccc32)cc1 (stereo not shown) [Example 111, 5-Dimethylaminocarbonylmethyl-7-chloro-1-[4-(2-methylbenzoylamino)benzoyl]-2,3,4,5-tetrahydro-1H-benzoazepine]
220 | COc1cc(NC(=O)c2ccccc2C)ccc1C(=O)N1CCCC(CC(=O)N2CCC(N(C)C)CC2)c2cc(F)ccc21 (stereo not shown) [Example 110]
360 | Cc1ccccc1C(=O)Nc1ccc(C(=O)N2CCCC(CC(=O)N3CCN(C)CC3)c3cc(Cl)ccc32)cc1 (stereo not shown) [Example 109]
230 | COc1cc(NC(=O)Cc2ccccc2C)ccc1C(=O)N1CCCC(OC(=O)CN(C)C)c2cc(Cl)ccc21 (stereo not shown) [Example 68, 5-(2-Dimethylaminoacetyloxy)-7-chloro-1-{2-methoxy-4-[2-(2-methylphenyl)acetylamino]benzoyl}-2,3,4,5-tetrahydro-1H-benzoazepine]
2600 | COc1cc(NC(=O)c2ccccc2Cl)ccc1C(=O)N1CCC=C(CCN2CCN(C(C)=O)CC2)c2cc(Cl)ccc21 [Example 179, 5-[2-(4-Acetyl-1-piperazinyl)ethyl]-7-chloro-1-[2-methoxy-4-(2-chlorobenzoylamino)benzoyl]-2,3,-dihydro-1H-benzoazepine]
3200 | Cc1ccccc1C(=O)Nc1ccc(C(=O)N2CCCC(CC(=O)N3CCC(N(C)C)CC3)c3cc(Cl)ccc32)c(C)c1 (stereo not shown) [Example 118, 5-(4-Dimethylamino-1-piperidinyl)carbonylmethyl-7-chloro-1-[2-methyl-4-(2-methylbenzoylamino)benzoyl]-2,3,4,5-tetrahydro-1H-benzoazepine.cndot.hydrochloride]
600 | Cc1ccccc1CC(=O)Nc1ccc(C(=O)N2CCCC(O)c3cc(Cl)ccc32)cc1 (stereo not shown) [Example 106, 5-Hydroxy-7-chloro-1-{4-[2-(2-methylphenyl)acetylamino]benzoyl}-2,3,4,5-tetrahydro-1H-benzoazepine]
4710 | CN(C)C(=O)CC1CCCN(C(=O)c2ccc(NC(=O)c3ccccc3OCCCCNC(C)(C)C)cc2)c2ccc(Cl)cc21 (stereo not shown) [Example 182]
284 | COc1cc(NC(=O)c2ccccc2Cl)ccc1C(=O)N1CCCC(OCCN2CCCN(C)CC2)c2cc(Cl)ccc21 (stereo not shown) [Example 180, 5-[2-(4-Methyl-1-homopiperazinyl)ethoxy]-7-chloro-1-[2-methoxy-4-(2-chlorobenzoylamino)benzoyl]-2,3,4,5-tetrahydro-1H-benzoazepine]
320 | COc1cc(C(=O)N2CCCC(CC(=O)N3CCN(C)CC3)c3cc(Cl)ccc32)ccc1NC(=O)c1ccccc1Cl (stereo not shown) [Example 117, 5-(4-Methyl-1-piperazinyl)carbonylmethyl-7-chloro-1-[3-methoxy-4-(2-chlorobenzoylamino)benzoyl]-2,3,4,5-tetrahydro-1H-benzoazepine.cndot.hydrochlorid]
258 | COc1cc(NC(=O)c2ccccc2Cl)ccc1C(=O)N1CCCC(OCCNC2CCCC2)c2cc(Cl)ccc21 (stereo not shown) [Example 177, 5-(2-Cyclopentylaminoethoxy)-7-chloro-1-[2-methoxy-4-(2-chlorobenzoylamino)benzoyl]-2,3,4,5-tetrahydro-1H-benzoazepine]
2800 | Cc1ccccc1C(=O)Nc1ccc(C(=O)N2CCCC(CCN3CCOCC3)c3cc(Cl)ccc32)c(C)c1 (stereo not shown) [Example 124, 5-Morpholinoethyl-7-chloro-1-[2-methyl-4-(2-methylbenzoylamino)benzoyl]-2,3,4,5-tetrahydro-1H-benzoazepine]
